Laboratory results from US6797672B2, “Fungicidal compositions based on fludioxonil” (Syngenta Crop Protection, Inc., priority 2003, dated 2004).
Like-named read-outs stand apart in the source and are kept apart here.

Tested on: Botrytis cinerea
Assay: Efficacy against Botrytis cinerea on apple (fruit cv. Golden Delicious)
Format: in vivo
Settings: 120 h, read-out: % activity observed
From the text: A synergistic effect exists whenever the action of an active ingredient combination is greater than the sum of the actions of the individual components.
The action to be expected E for a given active ingredient combination obeys the so-called COLBY formula and can be calculated as follows (COLBY, S. R. “Calculating synergistic and antagonistic responses of herbicide combination”. Weeds, Vol. 15, pages 20-22; 1967):
ppm=milligrams of active ingredient (=a.i.) per litre of spray mixture
X=% action by active ingredient I using p ppm of active ingredient
Y=% action by active ingredient II using q ppm of active ingredient.
According to Colby, the expected (additive) action of active ingredients I+II using p+q ppm of active ingredient is [formula]
If the action actually observed (O) is greater than the expected action (E), then the action of the combination is superadditive, i.e. there is a synergistic effect.
In an apple fruit cv. Golden Delicious 3 holes were drilled and each filled with 50 μl droplets of the formulated test composition. Two hours after application 50 μl of a spore suspension of B. cinerea (4×10^5 conidia/ml) were pipetted on the application sites. After an incubation period of 5 days at 20° C. in a growth chamber the % infected fruit area was determined. The activity was calculated relative to the disease rate on untreated apple fruits. The fungicide interactions in the mixture were calculated according to Colby.

| Structure (SMILES) | inhibition at 0.1 µg/mL [%] | inhibition at 0.5 µg/mL [%] | inhibition at 2.5 µg/mL [%] | inhibition at 5 µg/mL [%] | inhibition at 0.5 µg/mL (Thiabendazole 0.5 mg a.i./l, apple, 5 days at 20° C.) [%] | inhibition at 1 µg/mL (Thiabendazole 1 mg a.i./l, apple, 5 days at 20° C.) [%] | inhibition at 2.5 µg/mL (Thiabendazole 2.5 mg a.i./l, apple, 5 days at 20° C.) [%] | inhibition at 5 µg/mL (Thiabendazole 5 mg a.i./l, apple, 5 days at 20° C.) [%] | inhibition at 25 µg/mL (Thiabendazole 25 mg a.i./l, apple, 5 days at 20° C.) [%] |
| --- | --- | --- | --- | --- | --- | --- | --- | --- | --- |
| N#Cc1c[nH]cc1-c1cccc2c1OC(F)(F)O2 [Fludioxonil, 4-(2,2-difluoro-1,3-benzodioxol-7-yl)pyrrole-3-carbonitrile] | 2 | 24 | 54 | 67 | – | – | – | – | – |
| c1ccc2[nH]c(-c3cscn3)nc2c1 [Thiabendazole, 2-(thiazol-4-yl)benzimidazol] | – | – | – | – | 5 | 10 | 10 | 12 | 5 |
